Assay results taken from paper PMC6978637 (Saudi Pharmaceutical Journal : SPJ, 2019).

Assays:
FGFR2 [1] = assay: biochemical
FGFR2 [2] = target: FGFR2 (Homo sapiens, UniProt P21802); assay: biochemical; conditions: FGFR2-IC50
FGFR1 [3] = assay: Z'-LYTE kinase enzyme inhibition assay, FGFR1; format: biochemical; conditions: for FGFR1-SI: selectivity index IC50/IC50, lowest IC50 of the compound = 1
FGFR1 [4] = target: FGFR1 (Homo sapiens, UniProt P11362); assay: Z'-LYTE kinase enzyme inhibition assay, FGFR1; format: biochemical; conditions: FGFR1-IC50
WST-1 cytotoxicity assay = format: cell-based, mouse; conditions: mouse, NIH-3T3 cells (mouse embryonic fibroblasts)
NIH-3T3 cells = assay: WST-1 cytotoxicity assay; format: cell-based, mouse; conditions: Mus musculus, NIH3T3, 48 h, read-out: NIH-3T3 Cells IC50
FGFR4 = FGFR4 (Homo sapiens, UniProt P22455); assay: biochemical; format: biochemical
FGFR3 [5] = target: FGFR3 (Homo sapiens, UniProt P22607); assay: biochemical; format: biochemical; conditions: FGFR3-IC50
FGFR3 [6] = assay: biochemical; format: biochemical

FGFR4, sequence (P22455 22-802): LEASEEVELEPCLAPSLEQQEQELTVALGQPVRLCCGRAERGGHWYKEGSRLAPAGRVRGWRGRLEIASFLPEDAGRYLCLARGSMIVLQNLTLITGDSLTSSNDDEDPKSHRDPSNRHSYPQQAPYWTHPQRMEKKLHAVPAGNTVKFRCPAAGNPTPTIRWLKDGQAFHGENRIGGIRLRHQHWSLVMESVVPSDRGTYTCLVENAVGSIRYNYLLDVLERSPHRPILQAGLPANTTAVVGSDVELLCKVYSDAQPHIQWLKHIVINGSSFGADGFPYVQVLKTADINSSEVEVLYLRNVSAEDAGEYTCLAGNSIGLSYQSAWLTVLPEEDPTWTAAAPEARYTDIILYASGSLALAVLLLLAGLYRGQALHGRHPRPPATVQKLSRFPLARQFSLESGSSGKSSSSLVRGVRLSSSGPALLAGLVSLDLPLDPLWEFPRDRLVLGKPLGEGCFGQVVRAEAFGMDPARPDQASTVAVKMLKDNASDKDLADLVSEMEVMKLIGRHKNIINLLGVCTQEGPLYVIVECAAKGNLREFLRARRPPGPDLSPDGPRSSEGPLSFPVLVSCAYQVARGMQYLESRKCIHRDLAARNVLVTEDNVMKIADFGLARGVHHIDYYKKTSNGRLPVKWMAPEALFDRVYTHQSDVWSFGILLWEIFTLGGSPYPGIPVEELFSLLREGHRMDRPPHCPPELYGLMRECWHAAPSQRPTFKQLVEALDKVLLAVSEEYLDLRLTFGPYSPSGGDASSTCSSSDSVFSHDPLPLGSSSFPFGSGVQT
FGFR3 (Homo sapiens, UniProt P22607), sequence (P22607 23-806): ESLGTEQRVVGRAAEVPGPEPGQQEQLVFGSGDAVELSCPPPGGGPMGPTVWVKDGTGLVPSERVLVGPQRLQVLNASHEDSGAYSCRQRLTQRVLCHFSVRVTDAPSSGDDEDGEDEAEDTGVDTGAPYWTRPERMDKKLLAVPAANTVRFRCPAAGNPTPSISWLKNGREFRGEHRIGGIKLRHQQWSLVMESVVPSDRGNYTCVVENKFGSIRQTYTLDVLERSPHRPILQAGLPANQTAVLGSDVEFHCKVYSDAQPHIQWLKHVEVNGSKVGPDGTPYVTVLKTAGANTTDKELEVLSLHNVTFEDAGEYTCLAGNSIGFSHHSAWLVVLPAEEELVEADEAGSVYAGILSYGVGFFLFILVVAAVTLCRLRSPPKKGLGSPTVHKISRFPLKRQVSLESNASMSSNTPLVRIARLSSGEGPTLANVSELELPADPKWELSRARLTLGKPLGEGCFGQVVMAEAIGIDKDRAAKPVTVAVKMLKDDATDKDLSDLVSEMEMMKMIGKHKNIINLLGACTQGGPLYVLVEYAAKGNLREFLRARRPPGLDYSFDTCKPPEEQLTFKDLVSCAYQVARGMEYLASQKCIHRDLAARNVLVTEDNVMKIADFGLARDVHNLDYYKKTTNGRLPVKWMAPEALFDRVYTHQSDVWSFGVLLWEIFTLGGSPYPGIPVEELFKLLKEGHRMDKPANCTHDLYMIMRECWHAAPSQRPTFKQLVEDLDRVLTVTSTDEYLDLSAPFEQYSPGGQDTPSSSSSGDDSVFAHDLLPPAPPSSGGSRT
FGFR1 (Homo sapiens, UniProt P11362), sequence (P11362 22-822): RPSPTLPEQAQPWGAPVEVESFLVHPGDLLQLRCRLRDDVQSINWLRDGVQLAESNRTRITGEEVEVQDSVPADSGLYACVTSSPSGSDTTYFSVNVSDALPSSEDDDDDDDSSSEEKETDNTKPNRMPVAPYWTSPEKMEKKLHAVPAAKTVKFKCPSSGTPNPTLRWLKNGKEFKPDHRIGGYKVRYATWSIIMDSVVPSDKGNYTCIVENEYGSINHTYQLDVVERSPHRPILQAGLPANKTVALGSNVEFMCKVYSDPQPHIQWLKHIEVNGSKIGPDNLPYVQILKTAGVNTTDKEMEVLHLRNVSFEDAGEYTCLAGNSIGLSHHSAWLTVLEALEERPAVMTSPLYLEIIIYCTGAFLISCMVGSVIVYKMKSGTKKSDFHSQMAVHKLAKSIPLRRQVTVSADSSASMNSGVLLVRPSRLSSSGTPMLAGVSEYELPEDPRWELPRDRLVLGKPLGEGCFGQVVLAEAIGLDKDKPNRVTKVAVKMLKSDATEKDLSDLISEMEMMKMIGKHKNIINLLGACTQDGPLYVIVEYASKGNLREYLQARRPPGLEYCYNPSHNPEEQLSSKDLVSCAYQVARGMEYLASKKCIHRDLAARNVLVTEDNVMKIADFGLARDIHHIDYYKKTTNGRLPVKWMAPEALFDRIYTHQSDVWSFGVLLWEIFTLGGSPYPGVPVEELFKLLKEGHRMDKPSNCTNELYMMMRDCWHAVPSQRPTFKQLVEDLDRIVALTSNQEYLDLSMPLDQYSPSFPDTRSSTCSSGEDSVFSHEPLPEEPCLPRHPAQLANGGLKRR
FGFR2 (Homo sapiens, UniProt P21802), sequence (P21802 22-821): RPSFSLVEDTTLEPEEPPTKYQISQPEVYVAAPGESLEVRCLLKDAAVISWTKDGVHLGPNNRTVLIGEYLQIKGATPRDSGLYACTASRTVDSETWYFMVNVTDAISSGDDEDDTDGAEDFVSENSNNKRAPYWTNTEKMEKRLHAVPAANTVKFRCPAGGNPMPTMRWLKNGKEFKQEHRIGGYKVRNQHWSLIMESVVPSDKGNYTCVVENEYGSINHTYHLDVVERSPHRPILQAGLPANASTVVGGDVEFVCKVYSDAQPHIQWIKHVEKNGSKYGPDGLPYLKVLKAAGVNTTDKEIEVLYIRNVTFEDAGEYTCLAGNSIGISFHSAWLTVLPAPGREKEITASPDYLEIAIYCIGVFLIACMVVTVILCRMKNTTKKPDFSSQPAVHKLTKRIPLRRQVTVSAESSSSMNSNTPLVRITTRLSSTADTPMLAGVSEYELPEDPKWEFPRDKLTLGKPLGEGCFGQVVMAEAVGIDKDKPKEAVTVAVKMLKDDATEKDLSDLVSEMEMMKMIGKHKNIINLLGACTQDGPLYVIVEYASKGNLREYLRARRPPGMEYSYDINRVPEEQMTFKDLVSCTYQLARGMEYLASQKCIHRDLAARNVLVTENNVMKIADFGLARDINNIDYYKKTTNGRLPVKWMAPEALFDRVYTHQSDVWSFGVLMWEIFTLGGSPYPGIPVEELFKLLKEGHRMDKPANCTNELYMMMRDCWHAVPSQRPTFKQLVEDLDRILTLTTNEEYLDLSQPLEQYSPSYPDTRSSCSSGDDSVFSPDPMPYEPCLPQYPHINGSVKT

CN1CCN(c2ccc(/C=C3/C(=O)Nc4ccc(-c5ccc6cc(O)ccc6c5)cc43)cc2)CC1 [Compound A13, (E)-5-(6-hydroxynaphthalen-2-yl)-3-[4-(4-methylpiperazin-1-yl)benzylidene]indolin-2-one]
FGFR2-SI (FGFR2 [1]): 146.083
IC50 (FGFR2 [2]): 1020 ± 67.3 nM
FGFR selectivity (in words) (FGFR1 [3]; among FGFR1-4): selectivity to FGFR1
FGFR1-SI (FGFR1 [3]): 1
IC50 (FGFR1 [4]): 7 ± 0.206 nM
IC50 at 48 h (WST-1 cytotoxicity assay): > 1000 nM
IC50 (NIH-3T3 cells): 30100 ± 3230 nM
FGFR4-SI (FGFR4): 1285.449
IC50 (FGFR4): 8990 ± 314 nM
IC50 (FGFR3 [5]): 17100 ± 294 nM
FGFR3-SI (FGFR3 [6]): 2442.824

O=CN1CCN(c2ccc(/C=C3/C(=O)Nc4ccc(-c5ccc(C(=O)N6CCOCC6)cc5)cc43)cc2)CC1 [Compound A27, (E)-4-{4-{ {5-[4-(morpholine-4-carbonyl)phenyl]-2-oxoindolin-3-ylidene}methyl}phenyl}piperazine-1-carbaldehyde]
FGFR1-SI (FGFR1 [3]): 1
IC50 (FGFR1 [4]): 12 ± 0.736 nM
IC50 at 48 h (WST-1 cytotoxicity assay): > 1000 nM
IC50 (NIH-3T3 cells): 1230 ± 467 nM
IC50 (FGFR4): 9240 ± 265 nM
IC50 (FGFR3 [5]): 131 ± 4.23 nM
FGFR3-SI (FGFR3 [6]): 10.962
